{"source": "PubChem BioAssay AID1648", "about": "(Sanford-Burnham Center for Chemical Genomics, 2009)", "note": "The source made the active and inactive calls. How the calls were made is not given here.", "data": [{"molecular_target": "Serine/threonine-protein kinase mTOR (Homo sapiens) (UniProt P42345)", "sequence (P42345 2015-2114)": "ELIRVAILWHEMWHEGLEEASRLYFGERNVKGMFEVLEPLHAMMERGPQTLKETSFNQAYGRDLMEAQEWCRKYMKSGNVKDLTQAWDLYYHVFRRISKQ", "assay": "mTOR FRB domain ligand binding – biophysical, NMR (AID 1648)", "settings": "NMR binding to FRB domain, chemical shift", "values": [{"smiles": "CC[C@@]1(O)C(=O)OCc2c1cc1n(c2=O)Cc2cc3ccccc3nc2-1", "Kd": "> 4 mM (inactive)"}, {"smiles": "Cc1cc(C(=O)NC2=NCCS2)cs1", "Kd": "> 4 mM (inactive)"}, {"smiles": "COc1ccc(NC(=O)c2ccc[n+]([O-])c2)cc1", "Kd": "> 4 mM (inactive)"}, {"smiles": "N=c1c2c3c(sc2ncn1N)CCCC3", "Kd": "> 4 mM (inactive)"}, {"smiles": "CNC(=O)C1CCCN(S(C)(=O)=O)C1", "note": "(stereo not drawn)", "Kd": "> 4 mM (inactive)"}, {"smiles": "COC(=O)C(O)c1ccccc1", "note": "(stereo not drawn)", "Kd": "> 4 mM (inactive)"}, {"smiles": "CCOC(=O)Cc1cc(=O)n2[nH]c(C)cc2n1", "Kd": "> 4 mM (inactive)"}, {"smiles": "COC1=CC(=O)C=C(OC)C1=O", "Kd": "> 4 mM (inactive)"}, {"smiles": "CN(C)C(=O)CCNS(=O)(=O)c1ccccc1", "Kd": "> 4 mM (inactive)"}, {"smiles": "CN1CCN(C(=O)/C=C\\C(=O)O)CC1", "Kd": "> 4 mM (inactive)"}, {"smiles": "C[C@@H]1C(=O)OC2[C@H](O)C34[C@@H]5OC(=O)[C@@]3(O[C@@H]3OC(=O)[C@H](O)[C@@]34[C@H](C(C)(C)C)[C@H]5O)[C@]21O", "note": "(stereo partly drawn)", "Kd": "> 4 mM (inactive)"}, {"smiles": "CC1SC(=NC(=O)c2ccncc2)NC1=O", "note": "(stereo not drawn)", "Kd": "> 4 mM (inactive)"}, {"smiles": "Cc1ccn(S(=O)(=O)c2ccc(C(C)(C)C)cc2)n1", "Kd": "> 4 mM (inactive)"}, {"smiles": "Nc1csc(C(=O)O)c1", "Kd": "> 4 mM (inactive)"}, {"smiles": "Cc1nn(C)c(Cl)c1C(O)c1c(C)nn(C)c1Cl", "Kd": "> 4 mM (inactive)"}, {"smiles": "O=C(NN1C(=O)CSC1=S)c1ccccc1", "Kd": "> 4 mM (inactive)"}, {"smiles": "Cn1c(C(=O)O)ccc1S(N)(=O)=O", "Kd": "> 4 mM (inactive)"}, {"smiles": "Cc1cc(CN2C(=O)c3ccccc3C2=O)on1", "Kd": "> 4 mM (inactive)"}, {"smiles": "CC1CCc2cc(F)ccc2N1C(=O)c1ccc(=O)[nH]n1", "note": "(stereo not drawn)", "Kd": "> 4 mM (inactive)"}, {"smiles": "Nn1c(CN2CCCCC2)nc2ccccc2c1=O", "Kd": "> 4 mM (inactive)"}, {"smiles": "CCCCCCCCCCCCCc1ccco1", "Kd": "> 4 mM (inactive)"}, {"smiles": "CC(=O)Nc1cccc(N2C(=O)CCC2=O)c1", "Kd": "> 4 mM (inactive)"}, {"smiles": "OCC1CN(Cc2ccccc2)CCO1", "note": "(stereo not drawn)", "Kd": "> 4 mM (inactive)"}, {"smiles": "O=C(O)Cn1cc(C(=O)c2cccs2)c2ccccc21", "Kd": "> 4 mM (inactive)"}, {"smiles": "CN(C)C(=S)Nc1ccc([N+](=O)[O-])cc1", "Kd": "> 4 mM (inactive)"}, {"smiles": "CC1(C)CC2C1CCC1(C)OC2(C)CCC1O", "note": "(stereo not drawn)", "Kd": "> 4 mM (inactive)"}, {"smiles": "NC(=S)NC(=O)CN1C(=O)c2ccccc2C1=O", "Kd": "> 4 mM (inactive)"}, {"smiles": "NC(=O)c1ccccc1N1CCCCC1", "Kd": "> 4 mM (inactive)"}, {"smiles": "CN1CCC(NC(=O)Cc2c(F)cccc2Cl)CC1", "Kd": "> 4 mM (inactive)"}, {"smiles": "OCC1CCCC1O", "note": "(stereo not drawn)", "Kd": "> 4 mM (inactive)"}, {"smiles": "O=C(Nc1ccc(N2CCOCC2)cc1)C1CC1", "Kd": "> 4 mM (inactive)"}, {"smiles": "Cc1cc(C)n2c(SCc3c(C)noc3C)nnc2n1", "Kd": "> 4 mM (inactive)"}, {"smiles": "COc1cc2c(cc1OC)[C@@H]1C(=O)c3ccc(O)c(CC=C(C)C)c3O[C@@H]1CO2", "Kd": "> 4 mM (inactive)"}, {"smiles": "O=c1[nH]cc(Nc2ccccc2)c(=O)[nH]1", "Kd": "> 4 mM (inactive)"}, {"smiles": "NCC(=O)c1ccccc1", "Kd": "> 4 mM (inactive)"}, {"smiles": "Nc1nc(SCc2ccccc2)ns1", "Kd": "> 4 mM (inactive)"}, {"smiles": "COc1ccc2c(c1)=C(c1sc(N)nc1O)C(=O)N=2", "Kd": "> 4 mM (inactive)"}, {"smiles": "Cc1ccc(C(=O)Nn2cnnc2)s1", "Kd": "> 4 mM (inactive)"}, {"smiles": "COc1cc(OC)c2c(=O)c(O)c(-c3ccc(OC)c(OC)c3)oc2c1", "Kd": "> 4 mM (inactive)"}, {"smiles": "CNC(=O)n1ccc(C(=O)N2CCCCC2)n1", "Kd": "> 4 mM (inactive)"}, {"smiles": "O=c1c2ccccc2[nH]c2ncccc12", "Kd": "> 4 mM (inactive)"}, {"smiles": "CN(C(=O)NC1CCS(=O)(=O)C1)C1CCCCC1", "note": "(stereo not drawn)", "Kd": "> 4 mM (inactive)"}, {"smiles": "OCn1nnn(-c2ccccc2)c1=S", "Kd": "> 4 mM (inactive)"}, {"smiles": "Cc1nnc2ccc(N3CCCC3)nn12", "Kd": "> 4 mM (inactive)"}, {"smiles": "O=C(O)CCC(=O)Nc1nnc(C(F)(F)F)s1", "Kd": "> 4 mM (inactive)"}, {"smiles": "O=C(CS(=O)(=O)c1ccccc1)Nc1nccs1", "Kd": "> 4 mM (inactive)"}, {"smiles": "CCCCn1c(S(=O)(=O)O)nc2ccccc21", "Kd": "> 4 mM (inactive)"}, {"smiles": "O=C(/C=C/c1ccc(O)c(O)c1)O[C@@H]1C[C@](O)(C(=O)O)C[C@@H](O)[C@H]1O", "Kd": "> 4 mM (inactive)"}, {"smiles": "Cn1c(SCCC(=O)O)nnc1-c1cccnc1", "Kd": "> 4 mM (inactive)"}, {"smiles": "COc1cccc(S(=O)(=O)Nc2cccnc2)c1", "Kd": "> 4 mM (inactive)"}, {"smiles": "Cc1occc1C(=O)Nc1nnc(C2CCCCC2)s1", "Kd": "> 4 mM (inactive)"}, {"smiles": "O=C(NCC1CCNCC1)c1ccncc1", "Kd": "> 4 mM (inactive)"}, {"smiles": "COc1cc2c(c(OC)c1OC)-c1ccc(O)c(=O)cc1[C@@H](NC(C)=O)CC2", "Kd": "> 4 mM (inactive)"}, {"smiles": "C=C(C)[C@H]1CC=C(C(=O)O)CC1", "Kd": "> 4 mM (inactive)"}, {"smiles": "COc1cc2c(cc1OC)C(=O)OC2", "Kd": "> 4 mM (inactive)"}, {"smiles": "O=C1C2C3C=CC(C3)C2C(=O)N1c1ccccn1", "note": "(stereo not drawn)", "Kd": "> 4 mM (inactive)"}, {"smiles": "COc1ccc(NC(=O)/C=N/O)cc1", "Kd": "> 4 mM (inactive)"}, {"smiles": "O=C(O)C(Cc1cnc[nH]1)N1C(=O)c2ccccc2C1=O", "note": "(stereo not drawn)", "Kd": "> 4 mM (inactive)"}]}]}
